Data reported in US8962596B2 (Array BioPharma Inc., priority 2010, dated 2015).

Tests used:
Type in all cases: biochemical
[1] = molecular target: T1, Human Tyk2 kinase domain (Homo sapiens, UniProt P29597); assay: Tyk2 Inhibition Assay (Omnia kinase fluorescence peptide substrate assay); settings: averaged IC50 ranges; assay of Example A; 10 μM (Km app) or 1 mM ATP, 2 nM Tyk2
T1 construct: comprising amino acids 886 to 1187 with 10 additional histidine residues; 10xHis (histidine tag) (C, cleaved yes); made in house
T1 sequence (P29597 886-1187): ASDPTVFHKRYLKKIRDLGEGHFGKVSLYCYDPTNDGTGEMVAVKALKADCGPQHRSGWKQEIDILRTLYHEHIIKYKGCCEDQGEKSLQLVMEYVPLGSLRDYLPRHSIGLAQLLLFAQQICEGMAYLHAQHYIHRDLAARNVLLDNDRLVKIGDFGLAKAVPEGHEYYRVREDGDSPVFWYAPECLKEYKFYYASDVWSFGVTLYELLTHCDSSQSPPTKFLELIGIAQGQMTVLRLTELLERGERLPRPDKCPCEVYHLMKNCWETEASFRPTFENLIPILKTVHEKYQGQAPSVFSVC
Outline: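 2 nM His-tag-cleaved kinase domain (aa 886–1187) with 8 μM Omnia Y12 peptide, 10 μM (Km app) or 1 mM ATP, pH 7.4 HEPES/10 mM MgCl2, 2% DMSO. Fluorescence (ex 360/em 485 nm) every 50 s for 45 min; IC50 from 4-parameter fit of POC, top dose 10 μM.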

[2] = molecular target: T2, JAK1 (Homo sapiens, UniProt P23458); assay: JAK1 Inhibition Assay (Omnia kinase fluorescence peptide substrate assay); settings: averaged IC50 ranges; assay of Example B; 40 μM (Km app) or 1 mM ATP, 15 nM JAK1
T2 construct: purchased Invitrogen Corporation, Carlsbad, Calif; PV4775
T2 sequence (P23458 whole entry): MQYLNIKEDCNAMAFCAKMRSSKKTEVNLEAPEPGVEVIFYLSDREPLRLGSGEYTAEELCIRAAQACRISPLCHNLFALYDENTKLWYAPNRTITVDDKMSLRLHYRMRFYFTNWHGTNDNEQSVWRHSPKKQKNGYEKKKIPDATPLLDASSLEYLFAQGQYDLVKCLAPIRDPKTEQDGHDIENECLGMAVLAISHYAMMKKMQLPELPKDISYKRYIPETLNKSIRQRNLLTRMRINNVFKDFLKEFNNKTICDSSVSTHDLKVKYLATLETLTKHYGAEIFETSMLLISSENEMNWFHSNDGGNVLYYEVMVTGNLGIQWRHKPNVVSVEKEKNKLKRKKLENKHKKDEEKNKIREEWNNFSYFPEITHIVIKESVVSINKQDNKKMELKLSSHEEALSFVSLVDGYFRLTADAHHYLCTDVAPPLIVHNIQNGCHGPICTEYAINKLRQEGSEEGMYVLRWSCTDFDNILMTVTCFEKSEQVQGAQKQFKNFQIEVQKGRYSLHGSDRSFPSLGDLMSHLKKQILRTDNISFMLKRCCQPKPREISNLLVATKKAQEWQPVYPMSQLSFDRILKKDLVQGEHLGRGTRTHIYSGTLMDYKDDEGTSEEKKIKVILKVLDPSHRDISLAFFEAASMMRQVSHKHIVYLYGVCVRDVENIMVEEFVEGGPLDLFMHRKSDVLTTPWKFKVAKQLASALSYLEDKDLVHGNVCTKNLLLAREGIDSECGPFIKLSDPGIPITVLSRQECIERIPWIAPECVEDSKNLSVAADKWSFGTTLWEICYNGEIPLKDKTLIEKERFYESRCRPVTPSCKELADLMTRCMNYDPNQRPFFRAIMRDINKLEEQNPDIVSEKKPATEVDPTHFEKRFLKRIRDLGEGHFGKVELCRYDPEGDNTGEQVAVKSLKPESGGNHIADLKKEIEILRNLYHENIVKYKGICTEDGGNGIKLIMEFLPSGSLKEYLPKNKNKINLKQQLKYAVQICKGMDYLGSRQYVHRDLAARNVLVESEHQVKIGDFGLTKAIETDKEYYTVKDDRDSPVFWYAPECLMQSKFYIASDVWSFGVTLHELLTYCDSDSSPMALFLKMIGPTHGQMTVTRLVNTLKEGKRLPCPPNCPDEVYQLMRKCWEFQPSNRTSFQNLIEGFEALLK

[3] = molecular target: T3, JAK2 (Homo sapiens, UniProt O60674); assay: JAK2 Inhibition Assay (Omnia kinase fluorescence peptide substrate assay); settings: averaged IC50 ranges; assay of Example C; 25 μM (Km app) or 1 mM ATP, 5 nM JAK2
T3 construct: purchased Invitrogen Corporation, Carlsbad, Calif; PV4288
T3 sequence (O60674 whole entry): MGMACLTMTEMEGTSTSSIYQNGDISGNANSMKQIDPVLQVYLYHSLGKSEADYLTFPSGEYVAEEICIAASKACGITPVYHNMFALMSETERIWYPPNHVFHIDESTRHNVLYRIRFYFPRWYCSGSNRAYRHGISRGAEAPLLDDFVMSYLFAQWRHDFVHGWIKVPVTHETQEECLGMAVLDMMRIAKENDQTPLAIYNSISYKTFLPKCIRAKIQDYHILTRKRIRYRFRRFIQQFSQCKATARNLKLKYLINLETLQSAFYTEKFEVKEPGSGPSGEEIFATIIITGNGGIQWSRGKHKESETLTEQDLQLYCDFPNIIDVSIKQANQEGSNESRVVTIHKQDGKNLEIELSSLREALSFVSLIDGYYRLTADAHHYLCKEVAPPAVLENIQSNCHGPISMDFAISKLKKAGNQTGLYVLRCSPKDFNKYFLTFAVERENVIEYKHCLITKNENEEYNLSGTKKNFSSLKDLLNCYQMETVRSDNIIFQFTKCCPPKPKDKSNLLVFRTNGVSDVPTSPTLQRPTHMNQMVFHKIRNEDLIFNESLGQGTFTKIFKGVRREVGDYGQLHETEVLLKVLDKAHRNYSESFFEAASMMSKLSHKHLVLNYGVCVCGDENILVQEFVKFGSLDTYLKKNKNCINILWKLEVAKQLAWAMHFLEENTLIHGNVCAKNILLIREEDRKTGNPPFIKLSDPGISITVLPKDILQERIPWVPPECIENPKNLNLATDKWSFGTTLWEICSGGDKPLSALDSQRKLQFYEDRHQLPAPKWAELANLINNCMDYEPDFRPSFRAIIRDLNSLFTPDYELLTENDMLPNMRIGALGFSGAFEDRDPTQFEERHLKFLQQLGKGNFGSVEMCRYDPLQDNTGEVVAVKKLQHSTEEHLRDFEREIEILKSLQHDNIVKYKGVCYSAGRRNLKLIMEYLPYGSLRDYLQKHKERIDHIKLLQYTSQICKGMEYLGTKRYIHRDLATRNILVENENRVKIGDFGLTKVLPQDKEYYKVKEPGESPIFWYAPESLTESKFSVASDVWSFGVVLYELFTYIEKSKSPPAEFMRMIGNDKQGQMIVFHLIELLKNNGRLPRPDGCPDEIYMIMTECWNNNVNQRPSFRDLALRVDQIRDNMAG
Outline: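 A 10-point, 3-fold compound series (top 10 μM, 2% DMSO) was tested against 5 nM JAK2 with 10 μM Omnia Y7 substrate and either 1 mM or 25 μM (Km app) ATP. Buffer: pH 7.4 HEPES, MgCl2, Triton X-100, DTT. Sox fluorescence was monitored kinetically for 45 min; IC50 is the concentration giving 50 POC on a 4-parameter fit.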

[4] = molecular target: T4, JAK3 (Homo sapiens, UniProt P52333); assay: JAK3 Inhibition Assay (Omnia kinase fluorescence peptide substrate assay); settings: averaged IC50 ranges; assay of Example D; 10 μM (Km app) or 1 mM ATP, 2.5 nM JAK3
T4 construct: purchased Invitrogen Corporation, Carlsbad, Calif; PV4080
T4 sequence (P52333 1-1124): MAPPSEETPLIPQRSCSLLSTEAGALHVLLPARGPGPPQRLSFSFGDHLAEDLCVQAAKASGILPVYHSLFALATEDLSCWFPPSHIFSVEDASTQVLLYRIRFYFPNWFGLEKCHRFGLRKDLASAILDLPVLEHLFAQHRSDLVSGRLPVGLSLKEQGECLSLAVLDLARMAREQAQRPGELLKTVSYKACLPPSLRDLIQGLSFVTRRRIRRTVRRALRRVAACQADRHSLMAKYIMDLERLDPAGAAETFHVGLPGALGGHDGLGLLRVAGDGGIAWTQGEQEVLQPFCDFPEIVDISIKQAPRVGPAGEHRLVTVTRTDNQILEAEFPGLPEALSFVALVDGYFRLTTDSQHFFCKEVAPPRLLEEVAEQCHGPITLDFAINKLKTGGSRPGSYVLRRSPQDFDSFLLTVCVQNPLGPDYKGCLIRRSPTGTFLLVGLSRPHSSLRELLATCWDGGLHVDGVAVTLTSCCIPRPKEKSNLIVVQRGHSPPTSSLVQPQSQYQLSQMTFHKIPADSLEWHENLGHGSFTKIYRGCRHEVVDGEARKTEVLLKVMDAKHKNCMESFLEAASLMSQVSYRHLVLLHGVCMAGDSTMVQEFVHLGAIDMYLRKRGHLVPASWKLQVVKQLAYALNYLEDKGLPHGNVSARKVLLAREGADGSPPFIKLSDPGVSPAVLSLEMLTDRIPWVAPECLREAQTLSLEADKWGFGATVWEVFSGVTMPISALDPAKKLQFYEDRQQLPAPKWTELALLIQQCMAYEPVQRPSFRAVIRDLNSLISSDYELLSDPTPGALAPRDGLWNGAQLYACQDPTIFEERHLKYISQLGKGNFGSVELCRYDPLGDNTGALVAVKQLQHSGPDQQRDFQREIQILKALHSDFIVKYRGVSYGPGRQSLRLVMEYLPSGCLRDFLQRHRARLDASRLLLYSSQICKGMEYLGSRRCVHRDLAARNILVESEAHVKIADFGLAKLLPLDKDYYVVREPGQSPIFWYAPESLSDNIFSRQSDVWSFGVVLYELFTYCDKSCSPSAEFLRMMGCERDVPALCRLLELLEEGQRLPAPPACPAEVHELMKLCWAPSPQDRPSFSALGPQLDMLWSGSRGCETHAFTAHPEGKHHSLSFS
Outline: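 Kinase at 2.5 nM with 10 µM Omnia Y7 peptide and 10 µM (Km app) or 1 mM ATP in 25 mM HEPES pH 7.4, 10 mM MgCl2, 1 mM DTT, 0.01% Triton X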

Row | IC50 [1] [nM] | IC50 [2] [nM] | IC50 [3] [nM] | IC50 [4] [nM] | Structure (SMILES)
1 | < 10 | 100 to 1000 | 10 to 100 | > 1000 | Cn1cc(-c2cc3nccn3c(-c3cnn(C4(CC#N)CC5(CCOCC5)C4)c3)n2)cn1 [Example 150, 2-(2-(4-(7-(1-methyl-1H-pyrazol-4-yl)imidazo[1,2-c]pyrimidin-5-yl)-1H-pyrazol-1-yl)-7-oxaspiro[3.5]nonan-2-yl)acetonitrile]
2 | < 10 | 10 to 100 | 10 to 100 | > 1000 | Cn1cc(-c2cc3nccn3c(-c3cnn(C(CC#N)C4CCC4)c3)n2)cn1 (stereo not shown) [Example 20, 3-cyclobutyl-3-(4-(7-(1-methyl-1H-pyrazol-4-yl)imidazo[1,2-c]pyrimidin-5-yl)-1H-pyrazol-1-yl)propanenitrile]
3 | 10 to 100 | 100 to 1000 | 100 to 1000 | 100 to 1000 | CN1CCC(c2ccc(-c3cc4nccn4c(-c4cnn(C(CC#N)C5CCCC5)c4)n3)cc2)CC1 (single isomer, unassigned) [Example 111, 3-cyclopentyl-3-(4-(7-(4-(1-methylpiperidin-4-yl)phenyl)imidazo[1,2-c]pyrimidin-5-yl)-1H-pyrazol-1-yl)propanenitrile]
4 | 10 to 100 | 100 to 1000 | 10 to 100 | > 1000 | Cn1cc(-c2cc3nccn3c(-c3cnn(C(CC#N)c4ccccn4)c3)n2)cn1 (stereo not shown) [Example 6, 3-(4-(7-(1-methyl-1H-pyrazol-4-yl)imidazo[1,2-c]pyrimidin-5-yl)-1H-pyrazol-1-yl)-3-(pyridin-2-yl)propanenitrile]
5 | < 10 | 10 to 100 | 10 to 100 | 100 to 1000 | N#CCC(C1CC1)n1cc(-c2nc(-c3ccc(N4CCOCC4)cc3)cc3nccn23)cn1 (stereo not shown) [Example 117, 3-cyclopropyl-3-(4-(7-(4-morpholinophenyl)imidazo[1,2-c]pyrimidin-5-yl)-1H-pyrazol-1-yl)propanenitrile]
6 | 100 to 1000 | > 1000 | 100 to 1000 | > 1000 | Cn1cc(-c2cc3ncc(C#N)n3c(-c3cnn(C(CC#N)C4CC4)c3)n2)cn1 (stereo not shown) [Example 26, 5-(1-(2-cyano-1-cyclopropylethyl)-1H-pyrazol-4-yl)-7-(1-methyl-1H-pyrazol-4-yl)imidazo[1,2-c]pyrimidine-3-carbonitrile]
7 | 10 to 100 | 100 to 1000 | 100 to 1000 | 100 to 1000 | Cn1cc(-c2cc3nccn3c(-c3cnn(C(CC#N)C4CC4)c3)n2)cn1 (single isomer, unassigned; enantiomer 1) [Example 3, Enantiomer 1 of 3-cyclopropyl-3-(4-(7-(1-methyl-1H-pyrazol-4-yl)imidazo[1,2-c]pyrimidin-5-yl)-1H-pyrazol-1-yl)propanenitrile (Peak 1)]
8 | 100 to 1000 | > 1000 | > 1000 | > 1000 | N#CCC(C1CC1)n1cc(-c2nc(C(=O)NC3CCCCC3)cc3nccn23)cn1 (stereo not shown) [Example 123, 5-(1-(2-Cyano-1-cyclopropylethyl)-1H-pyrazol-4-yl)-N-cyclohexylimidazo[1,2-c]pyrimidine-7-carboxamide]
9 | < 10 | 10 to 100 | 10 to 100 | 100 to 1000 | N#CCC(C1CC1)n1cc(-c2nc(-c3cnn(CC(F)(F)F)c3)cc3nccn23)cn1 (stereo not shown) [Example 39, 3-cyclopropyl-3-(4-(7-(1-(2,2,2-trifluoroethyl)-1H-pyrazol-4-yl)imidazo[1,2-c]pyrimidin-5-yl)-1H-pyrazol-1-yl)propanenitrile]
10 | 100 to 1000 | > 1000 | > 1000 | > 1000 | Cc1c(-c2nc(-c3cnn(C)c3)cc3nccn23)cnn1CCC#N [Example 107, 3-(5-methyl-4-(7-(1-methyl-1H-pyrazol-4-yl)imidazo[1,2-c]pyrimidin-5-yl)-1H-pyrazol-1-yl)propanenitrile]
